Results taken from US12559454B2, “Benzenesulfonamide derivatives and uses thereof” (2692372 Ontario, Inc., priority 2019, dated 2026).

Tests used:
MV4-11 cells = experiment: CellTiter-Blue cell viability, MV-4-11; type: cell-based; conditions: Homo sapiens, 72 hrs exposure
Protocol: (§1) Anti-cancer efficacy of exemplary compounds of this application was assessed in vitro in different cancer cell lines. Cell viability was examined following treatment at various concentration of inhibitor (0.097656-50 μM) using a cell Titer-Blue cell viability assay. 1×10^4 cells (NHF, MV4-11, K562 and MOLM-13 cells)/well were plated in 96-well assay plates in culture medium. All cells were grown in DMEM, IMDM and RPMI-1640 supplemented with 10% FBS. After 24 hrs, test compounds and vehicle controls were added to appropriate wells so the final volume was 100 μl in each well. The cells were cultured for the desired test exposure period (72 hrs) at 37° C. and 5% CO2. The assay plates were removed from 37° C. incubator and 20 μl/well of CellTiter-Blue® Reagent was added. The plates were incubated using standard cell culture conditions for 1-4 hours and the plates were shaken for 10 seconds and record fluorescence at 560/590 nm.

MOLM-13 cells = experiment: CellTiter-Blue cell viability, MOLM-13; type: cell-based; conditions: Homo sapiens, 72 hrs exposure
Protocol: as §1

K562 cells = experiment: CellTiter-Blue cell viability, K562; type: cell-based; conditions: Homo sapiens, 72 hrs exposure
Protocol: as §1

tubulin = experiment: Tubulin polymerization assay; type: biochemical; conditions: for % Inhibition: Vmax normalized to tubulin only control; for % D.O.P.: degree of polymerization relative to tubulin control
Protocol: A96-well half-area clear flat-bottom microplate (Corning® #3697) was pre-heated in a plate reader (Cytation 3, BioTek) at 37° C. for 15 minutes prior to the start of each assay. Tubulin polymerization buffer (80 mM PIPES pH 6.9, 2 mM MgCl2, 0.5 mM EGTA, 15% glycerol, 1 mM GTP) was prepared from stock solutions and placed on ice. Inhibitors were prepared to M concentrations in buffer (80 mM PIPES pH 6.9, 2 mM MgCl2, 0.5 mM EGTA, 5% DMSO) from DMSO stock solutions. After the assay plate was pre-warmed, 10 μL of inhibitor or buffer control was added to selected wells. Every assay contained a tubulin only negative control for normalization of data, and a batabulin positive control. The assay plate was incubated at 37° C. for 3 minutes. During this time, a frozen aliquot of tubulin (10 mg/mL) in buffer (80 mM PIPES pH 6.9, 2 mM MgCl2, 0.5 mM EGTA) was defrosted by placing in a room temperature water bath. Once thawed, 200 μL of tubulin was mixed with 420 μL ice cold tubulin polymerization buffer (3 mg/mL tubulin in 80 mM PIPES, pH 6.9, 2 mM MgCl2, 0.5 mM EGTA, 1 mM GTP, 10.2% glycerol). To a 96-well plate on ice, aliquots of 100 μL tubulin was added to each well. From this plate, 90 μL of tubulin was immediately pipetted into all sample wells of the warmed assay plate using a multi-channel pipette. The assay plate was immediately put in the reader at 37° C. and shook for 5 s with orbital shaking at medium speed. The reader recorded the absorbance at 340 nm every 15 s for 30 min.
The resulting absorbance curves were normalized by subtracting each data point by the absorbance at time 0.
The largest change in absorbance over the assay time course was also recorded and related to the tubulin control as the % degree of polymerization (% D.O.P.).

| IC50 (MV4-11 cells) [µM] | IC50 (MOLM-13 cells) [µM] | IC50 (K562 cells) [µM] | SMILES | % Inhibition (tubulin) | % D.O.P. (tubulin) |
| --- | --- | --- | --- | --- | --- |
| 1 to 10 | 1 to 10 | 1 to 10 | COc1ccc(NS(=O)(=O)c2c(F)c(F)c(F)c(F)c2Oc2ccc(OC)c(F)c2)cc1F [Compound I-78, 2,3,4,5-tetrafluoro-6-(3-fluoro-4-methoxyphenoxy)-N-(3-fluoro-4-methoxyphenyl)benzenesulfonamide] | B (10-20%) | B (< 85%) |
| 1 to 10 | 1 to 10 | > 10 | CN(C)S(=O)(=O)c1c(F)c(F)c(F)c(F)c1NCc1ccccc1 [Compound I-48, 2-(benzylamino)-3,4,5,6-tetrafluoro-N,N-dimethylbenzenesulfonamide] | – | – |
| 1 to 10 | > 10 | 1 to 10 | CN(C)S(=O)(=O)c1c(F)c(F)c(F)c(F)c1Nc1cccnc1 [Compound I-52, 2,3,4,5-tetrafluoro-N,N-dimethyl-6-(pyridin-3-ylamino)benzenesulfonamide] | – | – |
| 0.1 to 1 | > 10 | > 10 | COc1ccc(NS(=O)(=O)c2c(F)c(F)c(F)c(F)c2OC2COC2)cc1F [Compound I-72, 2,3,4,5-tetrafluoro-N-(3-fluoro-4-methoxyphenyl)-6-(oxetan-3-yloxy)benzenesulfonamide] | A (<10%) | A (>85%) |
| 0.1 to 1 | 0.1 to 1 | 0.1 to 1 | COc1ccc(NS(=O)(=O)c2c(F)c(F)c(F)c(F)c2OC(C)C)cc1F [Compound I-61, 2,3,4,5-tetrafluoro-N-(3-fluoro-4-methoxyphenyl)-6-isopropoxybenzenesulfonamide] | A (<10%) | A (>85%) |
| 0.1 to 1 | 1 to 10 | 0.1 to 1 | COc1ccc(NS(=O)(=O)c2c(F)c(F)c(F)c(F)c2OCC(F)(F)F)cc1F [Compound I-68, 2,3,4,5-tetrafluoro-N-(3-fluoro-4-methoxyphenyl)-6-(2,2,2-trifluoroethoxy)benzenesulfonamide] | B (10-20%) | B (< 85%) |
| ≤ 0.1 | 0.1 to 1 | 0.1 to 1 | COc1ccc(NS(=O)(=O)c2c(F)c(F)c(F)c(F)c2OC)cc1F [Compound I-64, 2,3,4,5-tetrafluoro-N-(3-fluoro-4-methoxyphenyl)-6-methoxybenzenesulfonamide] | A (<10%) | A (>85%) |
| > 10 | > 10 | > 10 | COc1ccc(NS(=O)(=O)c2c(F)c(F)c(F)c(F)c2OCc2ccccc2)cc1F [Compound I-62, 2-(benzyloxy)-3,4,5,6-tetrafluoro-N-(3-fluoro-4-methoxyphenyl)benzenesulfonamide] | A (<10%) | – |
| – | 1 to 10 | 0.1 to 1 | COc1ccc(NS(=O)(=O)c2c(F)c(F)c(F)c(F)c2Oc2ccccc2)cc1F [Compound I-76, 2,3,4,5-tetrafluoro-N-(3-fluoro-4-methoxyphenyl)-6-phenoxybenzenesulfonamide] | C (>20%) | B (< 85%) |
| 1 to 10 | 1 to 10 | > 10 | CN(C)S(=O)(=O)c1c(F)c(F)c(F)c(F)c1NCC(F)F [Compound I-54, 2-((2,2-difluoroethyl)amino)-3,4,5,6-tetrafluoro-N,N-dimethylbenzenesulfonamide] | – | – |
| 0.1 to 1 | 1 to 10 | > 10 | COc1ccc(NS(=O)(=O)c2c(F)c(F)c(F)c(F)c2C(=O)O)cc1F [Compound I-92, 2,3,4,5-tetrafluoro-6-(N-(3-fluoro-4-methoxyphenyl)sulfamoyl)benzoic acid] | – | – |
| 1 to 10 | 1 to 10 | > 10 | CNc1c(F)c(F)c(F)c(F)c1S(=O)(=O)N(C)C [Compound I-49, 2,3,4,5-tetrafluoro-N,N-dimethyl-6-(methylamino)benzenesulfonamide] | – | – |

More lines, now with the values behind:

| SMILES | IC50 (MV4-11 cells) [µM] | IC50 (MOLM-13 cells) [µM] | IC50 (K562 cells) [µM] | % Inhibition (tubulin) | % D.O.P. (tubulin) |
| --- | --- | --- | --- | --- | --- |
| CC(=O)c1c(F)c(F)c(F)c(F)c1S(=O)(=O)N(C)C [Compound I-26, 2-acetyl-3,4,5,6-tetrafluoro-N,N-dimethylbenzenesulfonamide] | 1 to 10 | 1 to 10 | > 10 | – | – |
| CN(C)C(=O)c1c(F)c(F)c(F)c(F)c1S(=O)(=O)N(C)C [Compound I-37, 2-(N,N-dimethylsulfamoyl)-3,4,5,6-tetrafluoro-N,N-dimethylbenzamide] | 1 to 10 | 1 to 10 | > 10 | – | – |
| CN(C)S(=O)(=O)c1c(F)c(F)c(F)c(F)c1OCc1ccccc1 [Compound I-2, 2-(benzyloxy)-3,4,5,6-tetrafluoro-N,N-dimethylbenzenesulfonamide] | 0.1 to 1 | 1 to 10 | > 10 | – | – |
| CN(C)S(=O)(=O)c1c(F)c(F)c(F)c(F)c1OCc1ccncc1 [Compound I-17, 2,3,4,5-tetrafluoro-N,N-dimethyl-6-(pyridin-4-ylmethoxy)benzenesulfonamide] | – | 1 to 10 | > 10 | – | – |
| CN(C)S(=O)(=O)c1c(F)c(F)c(F)c(F)c1OCc1ccc(C(N)=O)cc1 [Compound I-18, 4-((2-(N,N-dimethylsulfamoyl)-3,4,5,6-tetrafluorophenoxy)methyl)benzamide] | 1 to 10 | 1 to 10 | > 10 | – | – |
| CC(C)COC(=O)c1c(F)c(F)c(F)c(F)c1S(=O)(=O)N(C)C [Compound I-32, isobutyl 2-(N,N-dimethylsulfamoyl)-3,4,5,6-tetrafluorobenzoate] | 0.1 to 1 | 1 to 10 | > 10 | – | – |
| CC(C)Oc1c(F)c(F)c(F)c(F)c1S(=O)(=O)N(C)C [Compound I-6, 2,3,4,5-tetrafluoro-6-isopropoxy-N,N-dimethylbenzenesulfonamide] | 1 to 10 | 1 to 10 | > 10 | – | – |
| CN(C)S(=O)(=O)c1c(F)c(F)c(F)c(F)c1C1CC1 [Compound I-39, 2-cyclopropyl-3,4,5,6-tetrafluoro-N,N-dimethylbenzenesulfonamide] | 1 to 10 | 1 to 10 | > 10 | – | – |
| CN(C)S(=O)(=O)c1c(F)c(F)c(F)c(F)c1Cc1ccccc1 [Compound I-24, 2-benzyl-3,4,5,6-tetrafluoro-N,N-dimethylbenzenesulfonamide] | 1 to 10 | 1 to 10 | > 10 | – | – |
| CN(C)S(=O)(=O)c1c(F)c(F)c(F)c(F)c1OCc1ccc(F)cc1F [Compound I-16, 2-((2,4-difluorobenzyl)oxy)-3,4,5,6-tetrafluoro-N,N-dimethylbenzenesulfonamide] | 0.1 to 1 | 1 to 10 | > 10 | – | – |
| CN(C)S(=O)(=O)c1c(F)c(F)c(F)c(F)c1OCc1ccccn1 [Compound I-19, 2,3,4,5-tetrafluoro-N,N-dimethyl-6-(pyridin-2-ylmethoxy)benzenesulfonamide] | 1 to 10 | 1 to 10 | > 10 | – | – |
| Cc1c(F)c(F)c(F)c(F)c1S(=O)(=O)N(C)C [Compound I-25, 2,3,4,5-tetrafluoro-N,N,6-trimethylbenzenesulfonamide] | – | 1 to 10 | > 10 | – | – |
| CN(C)S(=O)(=O)c1c(F)c(F)c(F)c(F)c1OC(F)F [Compound I-8, 2-(difluoromethoxy)-3,4,5,6-tetrafluoro-N,N-dimethylbenzenesulfonamide] | 1 to 10 | > 10 | > 10 | – | – |
| CN(C)S(=O)(=O)c1c(F)c(F)c(F)c(F)c1OC(=O)OC(C)(C)C [Compound I-21, tert-butyl (2-(N,N-dimethylsulfamoyl)-3,4,5,6-tetrafluorophenyl) carbonate] | > 10 | > 10 | > 10 | – | – |
| CN(C)S(=O)(=O)c1c(F)c(F)c(F)c(F)c1OC(=O)C(C)(C)C [Compound I-20, 2-(N,N-dimethylsulfamoyl)-3,4,5,6-tetrafluorophenyl pivalate] | – | 1 to 10 | > 10 | – | – |
| COC(=O)c1c(F)c(F)c(F)c(F)c1S(=O)(=O)N(C)C [Compound I-31, methyl 2-(N,N-dimethylsulfamoyl)-3,4,5,6-tetrafluorobenzoate] | 0.1 to 1 | 1 to 10 | > 10 | – | – |
